From ChEMBL document CHEMBL5335863, “Design, Synthesis, and Evaluation of 8-(o-Tolyl)quinazoline Derivatives as Small-Molecule PD-1/PD-L1 Antagonists” (ACS Med Chem Lett, 2024)

molecular target: T1, Programmed cell death protein 1/Programmed cell death 1 ligand 1 (Homo sapiens, UniProt Q15116+Q9NZQ7); assay: Inhibition of PD-1/PD-L1 interaction in co-culture of Jurkat-NFAT-PD-1 cells expressing PD-1 and reporter gene and Hep3B-OS8-hPD-L1 cells expressing OS-8 and human PD-L1 assessed as increase in luminescence intensity incubated for 6 hrs by luminometry; conditions: dose 0.4-1.11 µM
T1 sequence (Q15116 whole entry): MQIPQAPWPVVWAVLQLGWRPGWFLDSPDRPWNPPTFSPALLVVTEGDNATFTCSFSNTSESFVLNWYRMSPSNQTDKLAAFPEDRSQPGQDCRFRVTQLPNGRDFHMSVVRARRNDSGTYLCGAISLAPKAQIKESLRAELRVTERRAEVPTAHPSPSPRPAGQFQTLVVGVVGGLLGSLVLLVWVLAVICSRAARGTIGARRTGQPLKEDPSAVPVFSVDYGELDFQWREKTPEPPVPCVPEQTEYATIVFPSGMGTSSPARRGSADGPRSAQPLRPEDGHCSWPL
T1 sequence (Q9NZQ7 whole entry): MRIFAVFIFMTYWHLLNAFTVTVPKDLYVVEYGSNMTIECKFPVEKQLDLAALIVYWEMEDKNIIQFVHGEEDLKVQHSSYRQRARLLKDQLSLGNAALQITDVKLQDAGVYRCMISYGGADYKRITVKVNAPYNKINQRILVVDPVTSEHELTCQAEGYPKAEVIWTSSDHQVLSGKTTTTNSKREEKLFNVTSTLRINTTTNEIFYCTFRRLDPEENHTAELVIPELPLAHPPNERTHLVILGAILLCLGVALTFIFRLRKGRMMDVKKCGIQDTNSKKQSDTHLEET

SMILES	inhibition
Cc1c(COc2cc(OCc3cccc(C#N)c3)c(CNC[C@@H](O)CO)cc2Cl)cccc1-c1cccc2c(Oc3cc(OCc4cccc(C#N)c4)c(CNC[C@@H](O)CO)cc3Cl)ncnc12	Dose-Dependent Effect

molecular target: T1, Programmed cell death protein 1/Programmed cell death 1 ligand 1; assay: Inhibition of PD-1/PD-L1 interaction (unknown origin) incubated for 60 min by HTRF assay; type: protein-complex assay; conditions: not given

SMILES	IC50
Cc1c(COc2cc(OCc3cccc(C#N)c3)c(CN(C)CCO)cc2Cl)cccc1-c1cccc2c(Oc3cc(OCc4cccc(C#N)c4)c(CN(C)CCO)cc3Cl)ncnc12	44.8 nM
Cc1c(Nc2nccc3cc(CN4CC[C@H](O)C4)cnc23)cccc1-c1cccc(-c2nc3cc(CN4CC[C@H](C(=O)O)C4)cc(C#N)c3o2)c1C	12.1 nM
Cc1c(COc2cc(OCc3cccc(C#N)c3)c(CNC(C)(CO)CO)cc2Cl)cccc1-c1cccc2c(Oc3cc(OCc4cccc(C#N)c4)c(CNC(C)(CO)CO)cc3Cl)ncnc12	30.2 nM
Cc1c(COc2cc(OCc3cccc(C#N)c3)c(CNC3CCC3)cc2Cl)cccc1-c1cccc2c(Oc3cc(OCc4cccc(C#N)c4)c(CNC4CCC4)cc3Cl)ncnc12	105 nM
CC(CO)(CO)NCc1cc(Cl)c(Oc2ncnc3c(-c4ccc5c(c4)OCCO5)cccc23)cc1OCc1cccc(C#N)c1	40.8 nM
CC(=O)NCCNCc1cc(Cl)c(OCc2cccc(-c3cccc4c(Oc5cc(OCc6cccc(C#N)c6)c(CNCCNC(C)=O)cc5Cl)ncnc34)c2C)cc1OCc1cccc(C#N)c1	61.4 nM
Cc1c(COc2cc(OCc3cccc(C#N)c3)c(CNC[C@H](O)CO)cc2Cl)cccc1-c1cccc2c(Oc3cc(OCc4cccc(C#N)c4)c(CNC[C@H](O)CO)cc3Cl)ncnc12	33.9 nM
Cc1c(COc2cc(OCc3cccc(C#N)c3)c(CNC3CCCC3)cc2Cl)cccc1-c1cccc2c(Oc3cc(OCc4cccc(C#N)c4)c(CNC4CCCC4)cc3Cl)ncnc12	112 nM
Cc1c(COc2cc(OCc3cccc(C#N)c3)c(CNC3CC3)cc2Cl)cccc1-c1cccc2c(Oc3cc(OCc4cccc(C#N)c4)c(CNC4CC4)cc3Cl)ncnc12	390 nM
Cc1c(COc2cc(OCc3cccc(C#N)c3)c(CNC(C)C)cc2Cl)cccc1-c1cccc2c(Oc3cc(OCc4cccc(C#N)c4)c(CNC(C)C)cc3Cl)ncnc12	51.5 nM
Cc1c(COc2cc(OCc3cccc(C#N)c3)c(CNC3CCCCC3)cc2Cl)cccc1-c1cccc2c(Oc3cc(OCc4cccc(C#N)c4)c(CNC4CCCCC4)cc3Cl)ncnc12	167 nM
CCNCc1cc(Cl)c(OCc2cccc(-c3cccc4c(Oc5cc(OCc6cccc(C#N)c6)c(CNCC)cc5Cl)ncnc34)c2C)cc1OCc1cccc(C#N)c1	48.5 nM
Cc1c(COc2cc(OCc3cccc(C#N)c3)c(CNC(CO)CO)cc2Cl)cccc1-c1cccc2c(Oc3cc(OCc4cccc(C#N)c4)c(CNC(CO)CO)cc3Cl)ncnc12	47.2 nM
Cc1c(COc2cc(OCc3cccc(C#N)c3)c(CNC[C@@H](O)CO)cc2Cl)cccc1-c1cccc2c(Oc3cc(OCc4cccc(C#N)c4)c(CNC[C@@H](O)CO)cc3Cl)ncnc12	23.8 nM
Cc1c(COc2cc(OCc3cccc(C#N)c3)c(CNC(CO)(CO)CO)cc2Cl)cccc1-c1cccc2c(Oc3cc(OCc4cccc(C#N)c4)c(CNC(CO)(CO)CO)cc3Cl)ncnc12	25.3 nM
COCCNCc1cc(Cl)c(OCc2cccc(-c3cccc4c(Oc5cc(OCc6cccc(C#N)c6)c(CNCCOC)cc5Cl)ncnc34)c2C)cc1OCc1cccc(C#N)c1	101 nM
Cc1c(COc2cc(OCc3cccc(C#N)c3)c(C=O)cc2Cl)cccc1-c1cccc2c(Oc3cc(OCc4cccc(C#N)c4)c(C=O)cc3Cl)ncnc12	> 1000 nM
Cc1c(COc2cc(OCc3cccc(C#N)c3)c(CNC3CCOCC3)cc2Cl)cccc1-c1cccc2c(Oc3cc(OCc4cccc(C#N)c4)c(CNC4CCOCC4)cc3Cl)ncnc12	59.7 nM
Cc1c(COc2cc(OCc3cccc(C#N)c3)c(CO)cc2Cl)cccc1-c1cccc2c(Oc3cc(OCc4cccc(C#N)c4)c(CO)cc3Cl)ncnc12	> 1000 nM
Cc1c(COc2cc(OCc3cccc(C#N)c3)c(CNCCO)cc2Cl)cccc1-c1cccc2c(Oc3cc(OCc4cccc(C#N)c4)c(CNCCO)cc3Cl)ncnc12	37.7 nM
Cc1c(COc2cc(OCc3cccc(C#N)c3)c(CN3CC[C@@H](O)C3)cc2Cl)cccc1-c1cccc2c(Oc3cc(OCc4cccc(C#N)c4)c(CN4CC[C@@H](O)C4)cc3Cl)ncnc12	46.2 nM
Cc1c(COc2cc(OCc3cccc(C#N)c3)c(CN3CCC(O)CC3)cc2Cl)cccc1-c1cccc2c(Oc3cc(OCc4cccc(C#N)c4)c(CN4CCC(O)CC4)cc3Cl)ncnc12	75.8 nM
Cc1c(COc2cc(OCc3cccc(C#N)c3)c(CN3CC[C@H](O)C3)cc2Cl)cccc1-c1cccc2c(Oc3cc(OCc4cccc(C#N)c4)c(CN4CC[C@H](O)C4)cc3Cl)ncnc12	55.5 nM

test system: Jurkat; assay: Cytotoxicity against human Jurkat cells assessed as reduction in cell viability at 3.3 uM incubated for 48 hrs by CCK-8 assay; type: toxicity, cell-based; conditions: not given

SMILES	Activity
Cc1c(COc2cc(OCc3cccc(C#N)c3)c(CNC[C@@H](O)CO)cc2Cl)cccc1-c1cccc2c(Oc3cc(OCc4cccc(C#N)c4)c(CNC[C@@H](O)CO)cc3Cl)ncnc12	Non-Toxic
